This passage reports Ki results from BindingDB's records for PubMed 20126400 (University of Oklahoma, 2010).

What all share (assay): Ray2010 Assay 74
The target in assay [1] is 5-hydroxytryptamine receptor 7 (Homo sapiens, UniProt P34969). An excerpt: (§1) Table S2 shows raw Ki data for the current study combined with data collected from the literature for the ten additional compounds.
In another assay the target is Cannabinoid receptor 1 (Homo sapiens, UniProt P21554).
From the text: as §1

For a further assay, the target named is Cannabinoid receptor 2 (Homo sapiens, UniProt P34972).
From the text: as §1

In another assay the target is Histamine H3 receptor (Homo sapiens, UniProt Q9Y5N1).
From the text: as §1

Assay [2] concerns the target Neuronal acetylcholine receptor subunit alpha-2/beta-2 (Homo sapiens, UniProt P17787+Q15822).
From the text: as §1

Assay [3] concerns the target Neuronal acetylcholine receptor subunit alpha-2/beta-4 (Homo sapiens, UniProt P30926+Q15822).
From the text: as §1

Assay [4] addresses Neuronal acetylcholine receptor subunit alpha-3/beta-2 (Homo sapiens, UniProt P17787+P32297).
From the text: as §1

Assay [5] concerns the target Neuronal acetylcholine receptor subunit alpha-4/beta-2 (Homo sapiens, UniProt P17787+P43681).
From the text: as §1

For assay [6], the target named is Neuronal acetylcholine receptor subunit alpha-4/beta-2 (Mus musculus, UniProt O70174+Q9ERK7).
From the text: as §1

The target of assay [7] is Neuronal acetylcholine receptor subunit alpha-4/beta-4 (Homo sapiens, UniProt P30926+P43681).
From the text: as §1

Assay [8] has as its target Beta-2 adrenergic receptor (Homo sapiens, UniProt P07550).
From the text: as §1

Assay [9] has as its target Muscarinic acetylcholine receptor M3 (Homo sapiens, UniProt P20309).
From the text: as §1

The target of assay [10] is Voltage-dependent calcium channel subunit alpha-2/delta-1 (Homo sapiens, UniProt P54289).
From the text: as §1

Assay [11] deals with T1, Prostaglandin E2 receptor EP3 subtype (Homo sapiens, UniProt P43115).
T1 sequence (P43115 whole entry): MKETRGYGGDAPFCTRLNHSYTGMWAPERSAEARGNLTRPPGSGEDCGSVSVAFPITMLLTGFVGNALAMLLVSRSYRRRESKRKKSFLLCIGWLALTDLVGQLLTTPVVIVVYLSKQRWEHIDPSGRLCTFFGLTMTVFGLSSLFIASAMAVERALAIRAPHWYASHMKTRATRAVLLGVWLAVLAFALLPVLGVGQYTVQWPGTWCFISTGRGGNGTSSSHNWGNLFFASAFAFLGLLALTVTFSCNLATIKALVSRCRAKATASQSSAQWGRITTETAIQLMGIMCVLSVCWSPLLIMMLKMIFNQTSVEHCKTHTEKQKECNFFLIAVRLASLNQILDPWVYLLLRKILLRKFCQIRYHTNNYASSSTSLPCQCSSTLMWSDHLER
From the text: as §1

The target of a further assay is Vasopressin V1a receptor (Homo sapiens, UniProt P37288).
From the text: as §1

In assay [12] the target is T2, 5-hydroxytryptamine receptor 2C (Homo sapiens, UniProt P28335).
T2 sequence (P28335 whole entry): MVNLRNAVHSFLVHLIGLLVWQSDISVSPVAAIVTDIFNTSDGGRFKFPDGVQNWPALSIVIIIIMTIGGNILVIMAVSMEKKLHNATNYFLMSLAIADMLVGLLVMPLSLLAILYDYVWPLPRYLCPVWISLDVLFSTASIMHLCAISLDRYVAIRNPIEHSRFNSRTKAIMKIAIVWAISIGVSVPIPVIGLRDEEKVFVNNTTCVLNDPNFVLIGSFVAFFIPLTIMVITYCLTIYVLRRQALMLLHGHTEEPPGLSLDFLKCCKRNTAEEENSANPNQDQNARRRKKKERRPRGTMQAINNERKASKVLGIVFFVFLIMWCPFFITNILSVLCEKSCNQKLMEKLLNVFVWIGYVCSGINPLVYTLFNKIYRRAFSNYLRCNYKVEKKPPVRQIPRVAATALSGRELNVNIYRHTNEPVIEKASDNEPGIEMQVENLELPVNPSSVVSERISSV
From the text: as §1

Chain of Cannabinoid receptor 1 (P21554 whole entry): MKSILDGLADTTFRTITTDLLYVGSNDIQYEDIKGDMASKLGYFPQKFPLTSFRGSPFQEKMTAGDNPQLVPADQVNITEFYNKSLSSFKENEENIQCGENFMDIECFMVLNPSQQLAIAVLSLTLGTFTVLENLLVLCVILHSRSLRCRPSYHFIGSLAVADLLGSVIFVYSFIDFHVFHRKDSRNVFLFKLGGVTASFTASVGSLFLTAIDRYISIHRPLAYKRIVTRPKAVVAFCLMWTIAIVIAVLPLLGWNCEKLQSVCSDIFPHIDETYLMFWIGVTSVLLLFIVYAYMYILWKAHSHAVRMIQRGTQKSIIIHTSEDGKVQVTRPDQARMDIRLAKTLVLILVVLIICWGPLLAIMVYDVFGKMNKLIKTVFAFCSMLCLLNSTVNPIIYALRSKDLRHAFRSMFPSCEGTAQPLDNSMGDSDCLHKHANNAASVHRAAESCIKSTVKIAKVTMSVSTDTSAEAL
Chain of Histamine H3 receptor (Q9Y5N1 whole entry): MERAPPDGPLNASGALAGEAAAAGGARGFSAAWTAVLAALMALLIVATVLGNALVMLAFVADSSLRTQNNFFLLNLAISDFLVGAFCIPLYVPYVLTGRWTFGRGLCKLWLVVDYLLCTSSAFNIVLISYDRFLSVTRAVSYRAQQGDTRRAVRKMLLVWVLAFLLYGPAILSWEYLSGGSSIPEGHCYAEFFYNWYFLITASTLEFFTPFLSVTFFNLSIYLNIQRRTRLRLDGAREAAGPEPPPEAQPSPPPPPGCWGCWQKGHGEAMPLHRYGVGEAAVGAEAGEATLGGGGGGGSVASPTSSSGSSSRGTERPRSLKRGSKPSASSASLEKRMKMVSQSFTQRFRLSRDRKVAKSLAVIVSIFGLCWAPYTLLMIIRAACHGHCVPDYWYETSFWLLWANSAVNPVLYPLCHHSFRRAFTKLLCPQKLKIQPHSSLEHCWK
Chain of 5-hydroxytryptamine receptor 7 (P34969 whole entry): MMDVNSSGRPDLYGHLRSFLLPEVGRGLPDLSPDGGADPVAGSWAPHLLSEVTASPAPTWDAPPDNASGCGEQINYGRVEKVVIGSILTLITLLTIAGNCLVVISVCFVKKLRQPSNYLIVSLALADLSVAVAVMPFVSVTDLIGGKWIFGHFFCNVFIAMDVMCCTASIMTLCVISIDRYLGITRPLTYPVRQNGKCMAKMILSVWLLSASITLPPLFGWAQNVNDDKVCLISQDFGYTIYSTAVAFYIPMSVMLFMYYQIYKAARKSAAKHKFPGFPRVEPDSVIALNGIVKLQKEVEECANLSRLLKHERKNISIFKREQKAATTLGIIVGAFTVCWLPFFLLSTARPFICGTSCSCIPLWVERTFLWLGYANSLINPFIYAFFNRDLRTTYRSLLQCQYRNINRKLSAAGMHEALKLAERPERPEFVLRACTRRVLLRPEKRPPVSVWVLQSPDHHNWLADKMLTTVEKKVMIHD
Chain of Voltage-dependent calcium channel subunit alpha-2/delta-1 (P54289 25-956 limits assumed): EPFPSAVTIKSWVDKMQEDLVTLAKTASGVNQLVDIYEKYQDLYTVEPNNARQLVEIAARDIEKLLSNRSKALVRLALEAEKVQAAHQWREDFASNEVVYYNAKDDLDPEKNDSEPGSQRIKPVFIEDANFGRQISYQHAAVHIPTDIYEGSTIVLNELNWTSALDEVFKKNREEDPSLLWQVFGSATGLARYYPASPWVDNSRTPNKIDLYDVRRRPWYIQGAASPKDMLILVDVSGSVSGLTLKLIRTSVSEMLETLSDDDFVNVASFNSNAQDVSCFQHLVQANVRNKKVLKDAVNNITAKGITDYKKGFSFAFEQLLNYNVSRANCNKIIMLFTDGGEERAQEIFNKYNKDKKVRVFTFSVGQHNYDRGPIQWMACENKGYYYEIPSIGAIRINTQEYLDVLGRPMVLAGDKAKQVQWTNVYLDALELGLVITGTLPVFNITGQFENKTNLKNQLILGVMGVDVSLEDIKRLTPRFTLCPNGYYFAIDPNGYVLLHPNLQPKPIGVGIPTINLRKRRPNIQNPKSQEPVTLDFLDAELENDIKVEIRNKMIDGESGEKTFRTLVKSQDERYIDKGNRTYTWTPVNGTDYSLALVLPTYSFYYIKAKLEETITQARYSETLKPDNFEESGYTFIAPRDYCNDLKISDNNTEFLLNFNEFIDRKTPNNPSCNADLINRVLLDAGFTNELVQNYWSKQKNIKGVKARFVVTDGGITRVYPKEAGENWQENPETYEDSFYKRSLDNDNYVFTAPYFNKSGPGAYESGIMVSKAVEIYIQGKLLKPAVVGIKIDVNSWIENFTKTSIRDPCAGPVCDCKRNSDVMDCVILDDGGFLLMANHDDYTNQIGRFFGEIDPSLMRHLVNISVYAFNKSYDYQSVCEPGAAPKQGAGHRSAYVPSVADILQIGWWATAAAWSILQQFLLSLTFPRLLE
Chain of Voltage-dependent calcium channel subunit alpha-2/delta-1 (P54289 957-1103 limits assumed): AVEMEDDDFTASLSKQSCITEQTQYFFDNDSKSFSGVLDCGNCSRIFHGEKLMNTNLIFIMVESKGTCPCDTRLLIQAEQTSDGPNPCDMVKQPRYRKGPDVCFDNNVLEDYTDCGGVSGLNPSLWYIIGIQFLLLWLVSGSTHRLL
Chain of Muscarinic acetylcholine receptor M3 (P20309 whole entry): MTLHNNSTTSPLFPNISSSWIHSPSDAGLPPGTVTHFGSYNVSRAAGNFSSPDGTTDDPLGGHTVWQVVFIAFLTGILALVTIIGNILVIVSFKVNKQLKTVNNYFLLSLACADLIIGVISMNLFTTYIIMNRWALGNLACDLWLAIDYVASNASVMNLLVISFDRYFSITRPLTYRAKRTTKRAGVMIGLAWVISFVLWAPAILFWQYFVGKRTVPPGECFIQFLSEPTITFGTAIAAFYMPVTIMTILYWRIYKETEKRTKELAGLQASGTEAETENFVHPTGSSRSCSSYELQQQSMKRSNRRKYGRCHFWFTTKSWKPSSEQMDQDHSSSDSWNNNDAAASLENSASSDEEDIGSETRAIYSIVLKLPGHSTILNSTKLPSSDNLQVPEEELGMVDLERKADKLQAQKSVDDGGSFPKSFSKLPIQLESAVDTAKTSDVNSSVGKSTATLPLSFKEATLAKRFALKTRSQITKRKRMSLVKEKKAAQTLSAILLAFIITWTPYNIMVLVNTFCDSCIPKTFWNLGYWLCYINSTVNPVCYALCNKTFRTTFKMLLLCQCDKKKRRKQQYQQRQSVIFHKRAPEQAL
Chain of Cannabinoid receptor 2 (P34972 whole entry): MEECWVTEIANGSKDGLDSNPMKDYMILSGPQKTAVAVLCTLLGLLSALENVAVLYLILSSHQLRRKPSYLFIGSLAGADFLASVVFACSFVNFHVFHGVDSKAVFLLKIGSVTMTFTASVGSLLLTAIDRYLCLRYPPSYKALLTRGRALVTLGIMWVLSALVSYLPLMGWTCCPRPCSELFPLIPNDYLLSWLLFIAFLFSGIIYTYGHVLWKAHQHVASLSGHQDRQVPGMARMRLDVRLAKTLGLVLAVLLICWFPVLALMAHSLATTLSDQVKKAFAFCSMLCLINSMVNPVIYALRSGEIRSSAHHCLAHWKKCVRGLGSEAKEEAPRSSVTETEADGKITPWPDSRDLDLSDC
Chain of Vasopressin V1a receptor (P37288 whole entry): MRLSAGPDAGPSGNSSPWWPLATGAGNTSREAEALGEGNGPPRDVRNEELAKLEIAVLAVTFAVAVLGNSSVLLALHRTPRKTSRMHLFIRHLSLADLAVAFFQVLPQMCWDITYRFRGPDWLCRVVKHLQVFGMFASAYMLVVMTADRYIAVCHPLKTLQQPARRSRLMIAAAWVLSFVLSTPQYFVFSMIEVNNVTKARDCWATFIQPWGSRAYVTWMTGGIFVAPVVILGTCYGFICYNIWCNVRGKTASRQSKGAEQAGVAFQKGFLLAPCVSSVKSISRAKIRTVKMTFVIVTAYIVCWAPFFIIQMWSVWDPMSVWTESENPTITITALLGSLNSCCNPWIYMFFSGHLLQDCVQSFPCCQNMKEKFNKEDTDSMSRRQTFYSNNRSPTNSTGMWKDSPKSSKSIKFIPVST
Chain of Beta-2 adrenergic receptor (P07550 whole entry): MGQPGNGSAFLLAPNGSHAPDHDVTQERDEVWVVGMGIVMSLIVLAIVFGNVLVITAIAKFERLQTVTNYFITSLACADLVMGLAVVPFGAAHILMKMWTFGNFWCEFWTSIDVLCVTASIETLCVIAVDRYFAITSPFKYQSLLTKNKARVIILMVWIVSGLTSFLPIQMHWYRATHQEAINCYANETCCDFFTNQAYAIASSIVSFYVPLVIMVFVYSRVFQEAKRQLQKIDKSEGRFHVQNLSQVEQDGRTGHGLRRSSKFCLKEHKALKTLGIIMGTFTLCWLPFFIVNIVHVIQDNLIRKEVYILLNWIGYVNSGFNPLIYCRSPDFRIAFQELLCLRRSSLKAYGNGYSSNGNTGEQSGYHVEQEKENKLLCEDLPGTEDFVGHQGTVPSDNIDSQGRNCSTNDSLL

For `COc1cc(CC(C)N)c(OC)cc1C` (stereo not drawn) [(+/-)2-(2,5-Dimethoxy-4-methyl-phenyl)-1-methyl-ethylamine], the Ki in assay [1] is 1.59 µM; at Cannabinoid receptor 1, greater than 10 µM; on Cannabinoid receptor 2 it was greater than 10 µM; at Histamine H3 receptor, greater than 10 µM; in [2], greater than 10 µM; in assay [3] it was greater than 10 µM. In addition, the Ki in assay [4], in assay [5], in assay [6] and in assay [7] was greater than 10 µM throughout.

Take `COc1ccc2[nH]cc(CCN(C)C)c2c1` [3-(2-DIMETHYLAMINOETHYL)-5-METHOXYINDOLE]: the Ki (in assay [8]; at Cannabinoid receptor 1; on Cannabinoid receptor 2; in assay [9]; in assay [10]) was greater than 10 µM throughout.

For the compound `CN(C)CCc1c[nH]c2cc(F)ccc12` [6-f-dmt], the Ki is 0.0408 µM in [1]; greater than 10 µM in assay [8]; greater than 10 µM at Cannabinoid receptor 1; greater than 10 µM on Cannabinoid receptor 2; greater than 10 µM at Histamine H3 receptor; greater than 10 µM in [9]. The Ki (in assay [11]; at Vasopressin V1a receptor; in [10]) was greater than 10 µM throughout.

`CCSc1cc(OC)c(CCN)cc1OC` [2C-T-2]: the Ki is greater than 10 µM on Cannabinoid receptor 1; greater than 10 µM on Cannabinoid receptor 2; greater than 10 µM on Histamine H3 receptor; 0.692 µM in assay [9]; greater than 10 µM in [11]; greater than 10 µM on Vasopressin V1a receptor. Besides, the Ki in [10] is greater than 10 µM.

For the compound `CCSc1cc(OC)c(CC(N)CC)cc1OC` (stereo not given) [1-(4-Ethylsulfanyl-2,5-dimethoxy-benzyl)-propylamine], the Ki in [1] is 3.83 µM; on Cannabinoid receptor 1 it was greater than 10 µM; on Cannabinoid receptor 2, greater than 10 µM; at Histamine H3 receptor, greater than 10 µM; in assay [9], greater than 10 µM; in assay [11] it was greater than 10 µM. In addition, the Ki (at Vasopressin V1a receptor; in assay [10]) was greater than 10 µM each time.

As to `CC(N)Cc1ccc2c(c1)OCO2` (stereo not given), the Ki in [1] was 3.55 µM; in assay [8] it was greater than 10 µM; on Cannabinoid receptor 1, greater than 10 µM; on Cannabinoid receptor 2 it was greater than 10 µM; on Histamine H3 receptor it was greater than 10 µM.

`CCOc1cc(OC)c(CC(C)N)cc1OC` (stereo not given): the Ki in assay [12] was greater than 10 µM; in [1] it was 7.16 µM; in [8] it was greater than 10 µM; on Cannabinoid receptor 1, greater than 10 µM; on Cannabinoid receptor 2 it was greater than 10 µM; at Histamine H3 receptor, greater than 10 µM. Besides, the Ki (in [9]; in [11]; on Vasopressin V1a receptor; in [10]) was greater than 10 µM each time.

Regarding `COc1ccc2[nH]cc(CCN(C(C)C)C(C)C)c2c1` [5-meo-dipt], the Ki in assay [12] was greater than 10 µM; in assay [1], 1.23 µM; in assay [8], greater than 10 µM; on Cannabinoid receptor 1, greater than 10 µM; at Cannabinoid receptor 2, greater than 10 µM; at Histamine H3 receptor, greater than 10 µM. Besides, the Ki (in assay [9]; in assay [11]; on Vasopressin V1a receptor; in assay [10]) was greater than 10 µM each time.

For `CCSc1cc(OC)c(CC(C)N)cc1OC` (stereo not given) [2-(4-Ethylsulfanyl-2,5-dimethoxy-phenyl)-1-methyl-ethylamine], the Ki was 1.32 µM in assay [1]; greater than 10 µM at Cannabinoid receptor 1; greater than 10 µM on Cannabinoid receptor 2; greater than 10 µM at Histamine H3 receptor; 1.91 µM in assay [9]; greater than 10 µM in assay [11]. Besides, the Ki (on Vasopressin V1a receptor; in [10]) was greater than 10 µM in each case.

As for `COC(=O)[C@@H]1C[C@H](OC(C)=O)C(=O)[C@H]2[C@@]1(C)CC[C@H]1C(=O)O[C@H](c3ccoc3)C[C@]21C` [2S,4aR,6a(R,7R,9S,10aS,10bR)-9-(acetyloxy)-2-(furan-3-yl)dodecahydro-6a,10b-dimethyl-4,10-dioxo-2H-naphtho[2,1-c]pyran-7-carboxylic acid methyl ester], the Ki in assay [12], in assay [1], in assay [8] and in assay [9] was greater than 10 µM in each case.

As to `CN(C)CCc1c[nH]c2ccccc12` [2-(1H-indol-3-yl)-N,N-dimethylethanamine], the inhibition constant Ki is 0.0875 µM in [1]; greater than 10 µM in assay [8]; greater than 10 µM at Cannabinoid receptor 1; greater than 10 µM at Cannabinoid receptor 2; greater than 10 µM on Histamine H3 receptor; greater than 10 µM in assay [9]. In addition, the Ki in [10] is greater than 10 µM.

For `COc1cc(CCN)c(OC)cc1Br`, the Ki in assay [1] is 0.209 µM; on Cannabinoid receptor 1, greater than 10 µM; on Cannabinoid receptor 2 it was greater than 10 µM; on Histamine H3 receptor it was greater than 10 µM; in [9] it was 0.822 µM; in assay [11] it was greater than 10 µM. Also, the Ki on Vasopressin V1a receptor was greater than 10 µM.

Regarding `COc1cc(OC)c(OC)cc1CC(C)N` (stereo not drawn) [(+/-)1-Methyl-2-(2,4,5-trimethoxy-phenyl)-ethylamine], the Ki (in assay [1]; in assay [8]; at Histamine H3 receptor) was greater than 10 µM in each case.

Take `COc1ccc2[nH]cc(CCN(C)C(C)C)c2c1` [5-meo-mipt]: the Ki is 0.0198 µM in assay [1]; greater than 10 µM in [8]; greater than 10 µM on Cannabinoid receptor 2; greater than 10 µM on Histamine H3 receptor; greater than 10 µM in assay [9]; greater than 10 µM in assay [11]. For the same compound, the Ki (on Vasopressin V1a receptor; in assay [10]) was greater than 10 µM in each case.

`CCCN(CCC)CCc1c[nH]c2ccccc12` [dpt]: the Ki in assay [1] was 0.284 µM; in assay [8] it was greater than 10 µM; at Cannabinoid receptor 1, greater than 10 µM; at Cannabinoid receptor 2, greater than 10 µM; on Histamine H3 receptor, greater than 10 µM; in assay [9], greater than 10 µM. The Ki (in assay [11]; at Vasopressin V1a receptor; in assay [10]) was greater than 10 µM in each case.

For the compound `CN(C)CCc1c[nH]c2cccc(O)c12` [4-hydroxy-N,N-dimethyltryptamine], the Ki (in assay [8]; on Cannabinoid receptor 1; at Cannabinoid receptor 2; at Histamine H3 receptor; in [9]; in assay [10]) was greater than 10 µM in each case.

As for `CC(C)N(CCc1c[nH]c2ccccc12)C(C)C` [dipt], the Ki in assay [12] is greater than 10 µM; in assay [1], 3.42 µM; in assay [8], greater than 10 µM; at Cannabinoid receptor 1 it was greater than 10 µM; at Cannabinoid receptor 2, greater than 10 µM; in [9] it was greater than 10 µM. In addition, the Ki (in [11]; at Vasopressin V1a receptor; in assay [10]) was greater than 10 µM each time.

On to `COc1cc(CC(C)N)c(OC)cc1Br` (stereo not drawn) [2-(4-Bromo-2,5-dimethoxy-phenyl)-1-methyl-ethylamine((-)-DOB)], for which the Ki in assay [1] was 0.506 µM; on Cannabinoid receptor 1, greater than 10 µM; at Cannabinoid receptor 2, greater than 10 µM; in assay [9], 1.15 µM; in [11], greater than 10 µM; at Vasopressin V1a receptor, greater than 10 µM. For the same compound, the Ki in assay [10] is greater than 10 µM.

With `CCc1cc(OC)c(CCN)cc1OC` [2-(2,5-dimethoxy-4-ethylphenyl)ethylamine], the Ki in assay [1] is 0.426 µM; on Cannabinoid receptor 1, greater than 10 µM; at Cannabinoid receptor 2, greater than 10 µM; at Histamine H3 receptor, greater than 10 µM; in [9], 2.56 µM; in assay [11], greater than 10 µM. Further, the Ki (at Vasopressin V1a receptor; in assay [10]) was greater than 10 µM each time.

With `COc1cc(CCN)cc(OC)c1OC` [3,4,5-trimethoxyphenylethylamine], the Ki (in assay [12]; in assay [1]; in [8]; at Cannabinoid receptor 1; at Cannabinoid receptor 2; at Histamine H3 receptor) was greater than 10 µM throughout. The Ki (in [9]; in assay [11]; at Vasopressin V1a receptor; in [10]) was greater than 10 µM throughout.
